Measurements as given in ChEMBL document CHEMBL3886950, “Furanone compounds as kinase inhibitors” (2016).

Target: Serine/threonine-protein kinase B-raf (Homo sapiens, UniProt P15056, V600E)
Experiment: LanthaScreen Kinase Assay: The BRAFV600E enzymatic assay was performed using a LanthaScreen kinase assay kit purchased from Life Technologies (Grand Island, N.Y.). The assay was conducted according to the procedure provided in the assay kit. […] The final reaction volume for each reaction was 10 ul. The reaction was stopped by addition of 10 ul of TR-FRET dilution buffer kinase supplemented with kinase quench buffer (10 mM final) and Tb-anti-pMAP2K1 (2 nM final). The plate was further incubated at room temperature for another 60 minutes, and the fluorescent signals were read on Victor 5 (Perkin Elmer) with excitation at 340 nm and emission at 495 and 520 nM. The assay signal was determined as a ratio of FRET-specific signal measured with emission filter at 520 nM to that of the signal measured with Tb-specific emission filter at 495 nM. IC50 value was calculated using appropriate programs in GraphPad Prism by plotting the logarithm of the concentration versus percent inhibition.

Chain of Serine/threonine-protein kinase B-raf (P15056 2-766 V600E limits assumed): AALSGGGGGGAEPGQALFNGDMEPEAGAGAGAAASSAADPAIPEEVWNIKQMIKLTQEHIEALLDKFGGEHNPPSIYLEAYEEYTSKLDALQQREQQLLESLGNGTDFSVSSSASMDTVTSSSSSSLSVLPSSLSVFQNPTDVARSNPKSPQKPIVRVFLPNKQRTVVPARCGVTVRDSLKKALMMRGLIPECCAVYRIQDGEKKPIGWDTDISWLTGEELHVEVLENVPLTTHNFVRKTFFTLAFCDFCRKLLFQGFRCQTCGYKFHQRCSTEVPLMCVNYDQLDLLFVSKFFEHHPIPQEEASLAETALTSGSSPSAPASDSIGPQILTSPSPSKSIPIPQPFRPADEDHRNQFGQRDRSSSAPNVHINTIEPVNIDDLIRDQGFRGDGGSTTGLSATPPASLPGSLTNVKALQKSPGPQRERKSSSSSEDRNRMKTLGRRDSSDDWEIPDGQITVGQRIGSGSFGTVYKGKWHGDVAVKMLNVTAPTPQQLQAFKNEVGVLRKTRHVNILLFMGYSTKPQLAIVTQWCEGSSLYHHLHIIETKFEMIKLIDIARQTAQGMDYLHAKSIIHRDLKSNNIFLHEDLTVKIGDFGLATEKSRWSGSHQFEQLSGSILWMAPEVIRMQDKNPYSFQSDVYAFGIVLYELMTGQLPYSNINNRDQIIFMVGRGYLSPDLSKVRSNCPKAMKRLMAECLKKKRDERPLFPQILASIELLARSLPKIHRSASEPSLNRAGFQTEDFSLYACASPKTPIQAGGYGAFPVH

Structure (SMILES) | IC50
CC1(C)OC(c2ccnc(N)n2)=C(c2cc(Cl)cc(NS(=O)(=O)c3c(F)cccc3F)c2F)C1=O | 5.5 nM
Nc1nccc(C2=C(c3cccc(NS(=O)(=O)c4c(F)cccc4F)c3F)C(=O)C3(CCCC3)O2)n1 | 29 nM
CC1(C)OC(c2ccnc(N)n2)=C(c2cc(Cl)cc(NS(=O)(=O)c3ccc(F)cc3F)c2F)C1=O | 10 nM
